Data published in US8623429B2, “Stabilized anthocyanin compositions” (Omnica GmbH, priority 2007, dated 2014).

Tests used:
Assay type in all cases: physicochemical
[1] = Cyanidin-3-O-galactoside at pH 3.1 or 7.0 with/without DHLA, 25° C. over 3 days (HPLC)
Experimental: Cyanidn-3-O-Galactoside (0.001 molar solution) was dissolved at pH=3.1 or pH=7.0 each with/without DHLA (1.44 mmolar solution). Replicate incubations were followed at 25° C. over 3 days by HPLC.

[2] = Example 9: stability of bilberry extract anthocyanosides, 4 hours at 37° C., pH 7.0, with/without L-cysteine
Experimental: Sample a) 60 mg bilberry extract [37% anthocyanosides] (0.048 mmol anthocyanosides expressed as cyanidin-3-O-glucoside) were added to a 100 ml flask with 60 ml sodium phosphate buffer (5% [w/w], pH=7.0), and stirred until dissolution was complete. A 1 ml sample was taken immediately and acidified with formic acid to pH=1.0 and analyzed by HPLC for the content of anthocyanosides (Fresh Sample). The remaining solution was kept for 4 hours at 37° C. (water bath) with stirring. Thereafter another sample (Blank sample), representing unprotected degradation, was taken and acidified.
Sample b) 20 mg L-cysteine […] were added to a 100 ml flask with 60 ml sodium phosphate buffer (5% [w/w], pH=7.0) and stirred until dissolution was complete. 60 mg bilberry extract [37% anthocyanosides] (0.048 mmol expressed as cyanidin-3-O-glucoside) were then added to the flask and stir to fully dissolve, then kept for 4 hours at 37° C. (water bath) with stirring.
After 4 hours, samples were taken and acidified immediately with formic acid to pH=1.0 and analyzed by HPLC for the content of anthocyanosides. Degradation is expressed as decrease in peak area of individual peaks (calculated as % left after 4 hours).
Samples were prepared as outlined above in the HPLC Analytical Method. Test stability samples were immediately acidified (to block degradation) and injected undiluted following the detailed description provided below.

[3] = Example 2: degradation over time of selected bilberry anthocyanosides at 37° C., pH 7.0, with/without GSH (HPLC); conditions: pH 7.0, 37° C.; for %-residual anthocyanosides (% left): 4.30 hours
Experimental: Sample a) 60 mg bilberry extract [37% anthocyanosides] (0.048 mmol expressed as cyanidin-3-O-glucoside) were added to a 100 ml, filled to volume with sodium phosphate buffer (5% [w/w], pH=7.0) and stirred until dissolution was complete. A 1 ml sample was immediately taken and acidified with formic acid to pH=1.0 and analyzed by HPLC for the content of anthocyanosides. The remaining solution was kept at 37° C. (water bath) with stirring and additional 1 ml samples (Blank Samples), representing unprotected degradation, were sampled every 15 minutes. The samples were analyzed for selected anthocyanosides by HPLC.
Sample b) 20 mg reduced L-glutathione (0.065 mmol) were added to a 100 ml flask with 60 ml sodium phosphate buffer (5% [w/w], pH=7.0) and stirred until dissolution was complete. 60 mg bilberry extract [37% anthocyanosides] (0.048 mmol expressed as cyanidin-3-O-glucoside) were added and the flask was filled to volume with sodium phosphate buffer (5% [w/w], pH=7.0) and kept at 37° C. (water bath) with stirring. Every 15 minutes, 1 ml samples were taken and analyzed for selected anthocyanosides by HPLC.
Samples were prepared as outlined below in HPLC Analytical Method. Test stability samples were immediately acidified (to block degradation) and injected undiluted following the detailed description provided below.
HPLC Analytical Method (Materials, Instruments and Methods): […]

[4] = Example 1: stability of bilberry extract anthocyanosides, 4 hours at 37° C., pH 7.0, with/without DHLA or GSH (HPLC)
[5] = unprotected, pH 7.0, 37° C., 4 hours
[6] = 20 mg reduced L-glutathione, pH 7.0, 37° C., 4 hours
[7] = 30 mg dihydrolipoic acid, pH 7.0, 37° C., 4 hours

OC[C@H]1O[C@@H](Oc2cc3c(O)cc(O)cc3[o+]c2-c2ccc(O)c(O)c2)[C@H](O)[C@@H](O)[C@H]1O [Cn-3O-Gal, Cyanidin-3-O-galactoside]
recovered after 3 days ([1]; pH 3.1, 25° C., in presence of DHLA (1.44 mmolar)): 95%
recovered after 3 days ([1]; pH 3.1, 25° C., unprotected sample): 61%
recovered after 3 days ([1]; pH 7.0, 25° C., in presence of DHLA (1.44 mmolar)): about 47%
recovered after 3 days ([1]; pH 7.0, 25° C., unprotected sample): ~0%
Peak Area, Fresh solution ([2]; bilberry extract 60 mg in buffer pH 7.0, fresh sample): 465.8
% left, L-cysteine 20 mg ([2]; pH 7.0, 37° C., 4 hours): 77.3%
Peak Area, L-cysteine 20 mg ([2]; pH 7.0, 37° C., 4 hours): 360.2
% left, Blank [2, 5]: 41.0%
Peak Area, Blank [2, 5]: 191.1
Peak Area ([3]; Blank Sample, 1:15 h): 305.40
Peak Area ([3]; Blank Sample, 4:15 h): 300.50
Peak Area ([3]; Blank Sample, 4:30 h): 205.36
Peak Area ([3]; Blank sample, 0:00 h): 498.85
Peak Area ([3]; Blank sample, 0:15 h): 390.37
Peak Area ([3]; Blank sample, 0:30 h): 433.94
Peak Area ([3]; Blank sample, 0:45 h): 347.29
Peak Area ([3]; Blank sample, 1:00 h): 380.25
Peak Area ([3]; Blank sample, 1:45 h): 353.94
Peak Area ([3]; Blank sample, 2:00 h): 337.90
Peak Area ([3]; Blank sample, 2:15 h): 320.70
Peak Area ([3]; Blank sample, 2:30 h): 271.19
Peak Area ([3]; Blank sample, 2:45 h): 274.22
Peak Area ([3]; Blank sample, 3:00 h): 324.58
Peak Area ([3]; Blank sample, 3:15 h): 324.25
Peak Area ([3]; Blank sample, 3:30 h): 281.19
Peak Area ([3]; Blank sample, 4:00 h): 315.54
%-residual anthocyanosides (% left) ([3]; Blank): 41%
Peak Area ([3]; GSH Protected Sample (20 mg), 0:30 h): 470.61
Peak Area ([3]; GSH Protected Sample (20 mg), 1:30 h): 431.86
Peak Area ([3]; GSH Protected Sample (20 mg), 2:30 h): 390.23
Peak Area ([3]; GSH Protected Sample (20 mg), 3:30 h): 422.54
Peak Area ([3]; GSH Protected Sample (20 mg), 4:30 h): 420.37
Peak Area ([3]; GSH Protected Sample (20 mg), 4:45 h): 393.21
Peak Area ([3]; GSH protected sample (20 mg), 0:00 h): 508.09
Peak Area ([3]; GSH protected sample (20 mg), 0:15 h): 504.88
Peak Area ([3]; GSH protected sample (20 mg), 0:45 h): 425.89
Peak Area ([3]; GSH protected sample (20 mg), 1:00 h): 462.71
Peak Area ([3]; GSH protected sample (20 mg), 1:15 h): 452.17
Peak Area ([3]; GSH protected sample (20 mg), 1:45 h): 442.86
Peak Area ([3]; GSH protected sample (20 mg), 2:00 h): 436.19
Peak Area ([3]; GSH protected sample (20 mg), 2:15 h): 442.30
Peak Area ([3]; GSH protected sample (20 mg), 2:45 h): 422.32
Peak Area ([3]; GSH protected sample (20 mg), 3:00 h): 433.21
Peak Area ([3]; GSH protected sample (20 mg), 3:15 h): 425.54
Peak Area ([3]; GSH protected sample (20 mg), 3:45 h): 397.72
Peak Area ([3]; GSH protected sample (20 mg), 4:00 h): 446.42
Peak Area ([3]; GSH protected sample (20 mg), 4:15 h): 419.80
%-residual anthocyanosides (% left) ([3]; GSH-protected): 77%
%-residual anthocyanosides (% left) ([3]; GSH-protected, listed as cyanidin-3-O-galactose): 77%
% left, GSH (4 hours) [4, 6]: 77.3%
Peak Area, GSH (4 hours) [4, 6]: 360.2
% left, DHLA (4 hours) [4, 7]: 64.5%
Peak Area, DHLA (4 hours) [4, 7]: 300.3
Peak Area, Fresh (0 hours) ([4]; bilberry extract 60 mg/100 ml sodium phosphate buffer pH 7.0, fresh sample): 465.8
% left, Blank (4 hours) [4, 5]: 41.0%
Peak Area, Blank (4 hours) [4, 5]: 191.1
